The values below come from patent US20040106687A1, “Carotenoids as anti-hypertension agents” (priority 2001, published 2004).

This experiment relates to healthy young individuals. The experiment is described as follows: Double-blind, placebo-controlled crossover study of lycopene consumption, heart rate and blood pressure measured. The experiment is classed as in vivo, human. Here is the method: A double-blind, placebo-controlled crossover study of lycopene consumption in 16 healthy young individuals. Each subject was studied at baseline and then given 15 mg lycopene or placebo for two weeks and re-evaluated. A one-month lycopene administration free washout period followed, another lycopene administration was administered prior to a final evaluation. Each evaluation included measures among other parameters also heart rate and blood pressure. […]

[1] abbreviates: 16 healthy young individuals, 15 mg lycopene for two weeks.

On to `CC(C)=CCC/C(C)=C/C=C/C(C)=C/C=C/C(C)=C/C=C/C=C(C)/C=C/C=C(C)/C=C/C=C(\C)CCC=C(C)C` [Lycopene, lycopene], for which, under setting [1], the “Diastolic Blood Pressure” value worked out at 66 ± 2 mmHg and the “Systolic Blood Pressure” value was determined as 114 ± 2 mmHg. Besides, the “Change in diastolic blood pressure as compared to placebo administration” value (during lycopene administration, 15 mg for two weeks, p<0.05) is on record as “significant reduction”.
